In patent publication US8957205B2, “Cycloalkane carboxamide derivatives and production process of same” (Seikagaku Corporation, priority 2006, dated 2015):
*1 amine or outer side, *2 acyl side, *3 side chain or, on linkers, in order; H or OH if unused. Where a SMILES comes first, the peptide text is derived from it. [ ]: non-standard residue; d: D form. The star is where a group is joined. Ac6c = NC1(C(=O)O)CCCCC1; Morpholide = C1CN(*)CCO1; Nle = CCCC[C@H](N)C(=O)O; Cbz = O=C(OCc1ccccc1)*; CO = O=C([*:1])[*:2]

Key:
Human cathepsin B = target: T1, Human cathepsin B (Homo sapiens, UniProt P07858); assay: Measurement of cathepsin B inhibitory activity (Z-Arg-Arg-MCA fluorescent substrate); assay type: biochemical; settings: selectivity ratio B/K
T1 construct: purchased Calbiochem Corp
Experimental: (§1) Human cathepsin B (Calbiochem Corp.) was used for measurement. Activity was measured based on decomposition of the fluorescent substrate Z-Arg-Arg-MCA (Peptide Institute, Inc.) following the method of Barrett et al.^3). Namely, the decomposition of 20 mM Z-Arg-Arg-MCA by cathepsin B was measured in 100 mM sodium/potassium phosphate, 1 mM EDTA, 8 mM cysteine and 0.005% Brij35 at pH 6.0. The reaction was carried out for 30 minutes at 30° C., and stopped by the addition of 2×10^−5 M Calpeptin. After stopping the reaction, fluorescent intensity was measured at an excitation wavelength of 355 nm and measurement wavelength of 460 nm. Inhibition of cathepsin B by the compounds was examined using the reaction system described above.

Human cathepsin L = target: T2, Human cathepsin L (Homo sapiens, UniProt P07711); assay: Measurement of cathepsin L inhibitory activity (Z-Phe-Arg-MCA fluorescent substrate); assay type: biochemical; settings: selectivity ratio L/K
T2 construct: purchased Calbiochem Corp
Experimental: as §1, with “cathepsin L” for “cathepsin B”, “substrate Z-Phe-Arg-MCA” for “substrate Z-Arg-Arg-MCA”, “[…] Z-Phe-Arg-MCA” for “mM Z-Arg-Arg-MCA”, “mM sodium acetate, 5” for “mM sodium/potassium phosphate, 1”, “EDTA, 4 mM urea,” for “EDTA,”, “pH 5.5.” for “pH 6.0.”

T2 sequence (P07711 114-333): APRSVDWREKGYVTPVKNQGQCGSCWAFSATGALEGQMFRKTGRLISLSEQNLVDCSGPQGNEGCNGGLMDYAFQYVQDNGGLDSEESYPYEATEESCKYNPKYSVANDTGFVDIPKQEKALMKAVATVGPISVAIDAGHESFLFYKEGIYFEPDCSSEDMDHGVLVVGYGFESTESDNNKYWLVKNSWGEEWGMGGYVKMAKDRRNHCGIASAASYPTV

B/K (ratio of cathepsin B IC50 to cathepsin K IC50) (Human cathepsin B)	L/K (ratio of cathepsin L IC50 to cathepsin K IC50) (Human cathepsin L)	Structure (SMILES)
4.3	7.3	CCCC[C@@H](C=O)NC(=O)[C@H](CC(C)C)NC(=O)N1CCOCC1 [Reference Example 186, N—[N-(4-Morpholinylcarbonyl)-L-leucyl]-L-norleucinal]
30	35	CC(C)C[C@H](NC(=O)c1ccco1)C(=O)N[C@H](C=O)C(C)C [Reference Example 187, N—[N-(2-Furanylcarbonyl)-L-leucyl]-L-valinal]
12	21	CCCC[C@@H](C=O)NC(=O)C1(NC(=O)N2CCOCC2)CCCCC1 [Example 10, N-[[1-[(4-Morpholinylcarbonyl)amino]cyclohexyl]carbonyl]-L-norleucinal] ({Morpholide-CO}-[Ac6c]-[Nle]-aldehyde)
58	74	CC(C)C[C@H](NC(=O)OCc1ccccc1)C(=O)N[C@H](C=O)C(C)C [Reference Example 184, N—[N-[(Phenylmethoxy)carbonyl]-L-leucyl]-L-valinal] (Cbz-Leu-Val-aldehyde)

The next lines start with the molecule.

Structure (SMILES)	B/K (ratio of cathepsin B IC50 to cathepsin K IC50) (Human cathepsin B)	L/K (ratio of cathepsin L IC50 to cathepsin K IC50) (Human cathepsin L)
CCCC[C@@H](C=O)NC(=O)[C@H](CC(C)C)NC(=O)OCc1ccccc1 [Reference Example 185, N—[N-[(Phenylmethoxy)carbonyl]-L-leucyl]-L-norleucinal]	11	15
CC(C)[C@@H](C=O)NC(=O)C1(NC(=O)OCc2ccccc2)CCCCC1 [Example 7, N-[[1-[[(Phenylmethoxy)carbonyl]amino]cyclohexyl]carbonyl]-L-valinal] (Cbz-[Ac6c]-Val-aldehyde)	230	400
CC(C)[C@@H](C=O)NC(=O)C1(NC(=O)c2ccco2)CCCCC1 [Example 9, N-[[1-[(2-Furanylcarbonyl)amino]cyclohexyl]carbonyl]-L-valinal]	87	370
CCCC[C@@H](C=O)NC(=O)C1(NC(=O)OCc2ccccc2)CCCCC1 [Example 8, N-[[1-[[(Phenylmethoxy)carbonyl]amino]cyclohexyl]carbonyl]-L-norleucinal] (Cbz-[Ac6c]-[Nle]-aldehyde)	35	50
